The molecules below were run on human colon carcinoma NR− line (WIDR), wild-type (assay: Cytotoxicity, 18 h drug exposure, WiDr NR− line). Conditions: Homo sapiens, WiDr, 18 h, read-out: WiDr NR− IC50.
Type: cell-based
Source text: (§1) The Chinese hamster fibroblast NR− line (T78-1) is a V79/4 Chinese hamster fibroblast transfected with an empty shuttle vector, while the NR+ line (T79-A3) is the corresponding NR transfectant. The human colon carcinoma NR− line (WIDR) is wild-type, while the NR+ line (WC14 10) is the corresponding NR transfectant. The human ovarian carcinoma NR− line (SKOV3) is wild-type, while the NR+ line (SC3.2) is the corresponding NR transfectant. EMT6 is a mouse mammary carcinoma line, and EN2A is the NR-transformed counterpart.
`NC(=O)c1cc(N2CC2)c([N+](=O)[O-])cc1[N+](=O)[O-]` [CB1954, 5-(aziridin-1-yl)-2,4-dinitrobenzamide, reference compound] gave an IC50 of 56 µM.
Molecule `COC(=O)CCNC(=O)c1cc(N2CC2)c([N+](=O)[O-])cc1[N+](=O)[O-]` [Compound 8, 5-(aziridin-1-yl)-N-[2-(methoxycarbonyl)ethyl]-2,4-dinitrobenzamide] has an IC50 of 124 µM.

Same assay, conditions: Homo sapiens; WIDR cells, 18 h drug exposure; read-out: WiDr NR− IC50
`O=C(NCC(O)CO)c1cc(N2CC2)c([N+](=O)[O-])cc1[N+](=O)[O-]` (stereo not drawn) [Compound 2, N-(2,3-dihydroxypropyl)-5-(aziridin-1-yl)-2,4-dinitrobenzamide] gave an IC50 of 147 µM.

Each molecule was assayed on Chinese hamster fibroblast NR− line (T78-1), V79/4 transfected with an empty shuttle vector (assay: Cytotoxicity, 18 h drug exposure, V79 NR− line (T78-1)). Conditions: Cricetulus griseus, T78-1, 18 h, read-out: V-79 NR− IC50.
Type: cell-based
Source text: as §1
`NC(=O)c1cc(N2CC2)c([N+](=O)[O-])cc1[N+](=O)[O-]` [CB1954, 5-(aziridin-1-yl)-2,4-dinitrobenzamide, reference compound] gave an IC50 of 395 µM.
With `COC(=O)CCNC(=O)c1cc(N2CC2)c([N+](=O)[O-])cc1[N+](=O)[O-]` [Compound 8, 5-(aziridin-1-yl)-N-[2-(methoxycarbonyl)ethyl]-2,4-dinitrobenzamide] the IC50 was 581 µM.

Same assay, conditions: Cricetulus griseus; T78-1 cells, 18 h drug exposure; read-out: V-79 NR− IC50
With `O=C(NCC(O)CO)c1cc(N2CC2)c([N+](=O)[O-])cc1[N+](=O)[O-]` (stereo not drawn) [Compound 2, N-(2,3-dihydroxypropyl)-5-(aziridin-1-yl)-2,4-dinitrobenzamide] the IC50 was 210 µM.

The molecules below were run on human ovarian carcinoma NR− line (SKOV3), wild-type (assay: Cytotoxicity, 18 h drug exposure, SKOV3 NR− line). Conditions: Homo sapiens, SK-OV-3, 18 h, read-out: SKOV NR− IC50.
Type: cell-based
Source text: as §1
`NC(=O)c1cc(N2CC2)c([N+](=O)[O-])cc1[N+](=O)[O-]` [CB1954, 5-(aziridin-1-yl)-2,4-dinitrobenzamide, reference compound] showed an IC50 of 182 µM.
Molecule `COC(=O)CCNC(=O)c1cc(N2CC2)c([N+](=O)[O-])cc1[N+](=O)[O-]` [Compound 8, 5-(aziridin-1-yl)-N-[2-(methoxycarbonyl)ethyl]-2,4-dinitrobenzamide] has an IC50 of 677 µM.

Same assay, conditions: Homo sapiens, SK-OV-3; SKOV3 cells, 18 h drug exposure; read-out: SKOV NR− IC50
`O=C(NCC(O)CO)c1cc(N2CC2)c([N+](=O)[O-])cc1[N+](=O)[O-]` (stereo not drawn) [Compound 2, N-(2,3-dihydroxypropyl)-5-(aziridin-1-yl)-2,4-dinitrobenzamide] showed an IC50 of 170 µM.

Each molecule was assayed on human colon carcinoma NR+ line (WC14 10), NR transfectant (assay: Cytotoxicity, 18 h drug exposure, WiDr NR+ line (WC14 10)). Conditions: Homo sapiens, WiDr, 18 h, read-out: WiDr NR+ IC50.
Type: cell-based
Source text: as §1
Work on `NC(=O)c1cc(N2CC2)c([N+](=O)[O-])cc1[N+](=O)[O-]` [CB1954, 5-(aziridin-1-yl)-2,4-dinitrobenzamide, reference compound] yielded an IC50 of 1.2 µM.
In the case of `COC(=O)CCNC(=O)c1cc(N2CC2)c([N+](=O)[O-])cc1[N+](=O)[O-]` [Compound 8, 5-(aziridin-1-yl)-N-[2-(methoxycarbonyl)ethyl]-2,4-dinitrobenzamide], the IC50 is reported as 2.3 µM.

Same assay, conditions: Homo sapiens, WiDr; WC14 10 cells, 18 h drug exposure; read-out: WiDr NR+ IC50
For `O=C(NCC(O)CO)c1cc(N2CC2)c([N+](=O)[O-])cc1[N+](=O)[O-]` (stereo not drawn) [Compound 2, N-(2,3-dihydroxypropyl)-5-(aziridin-1-yl)-2,4-dinitrobenzamide], the IC50 was 3.7 µM.

Same assay, conditions: WIDR vs WC14 10; inter-experiment average
With `NC(=O)c1cc(N2CC2)c([N+](=O)[O-])cc1[N+](=O)[O-]` [CB1954, 5-(aziridin-1-yl)-2,4-dinitrobenzamide, reference compound] the “WiDr ratio of IC50s” value was 51.
With `O=C(NCC(O)CO)c1cc(N2CC2)c([N+](=O)[O-])cc1[N+](=O)[O-]` (stereo not drawn) [Compound 2, N-(2,3-dihydroxypropyl)-5-(aziridin-1-yl)-2,4-dinitrobenzamide] the “WiDr ratio of IC50s” value was 49.
With `COC(=O)CCNC(=O)c1cc(N2CC2)c([N+](=O)[O-])cc1[N+](=O)[O-]` [Compound 8, 5-(aziridin-1-yl)-N-[2-(methoxycarbonyl)ethyl]-2,4-dinitrobenzamide] the “WiDr ratio of IC50s” value was 51.

These molecules were tested on EMT6 mouse mammary carcinoma line (assay: Cytotoxicity, 18 h drug exposure, EMT6 NR− line). Conditions: Mus musculus, EMT6, 18 h, read-out: EMT6 NR− IC50.
Type: cell-based
Source text: as §1
`NC(=O)c1cc(N2CC2)c([N+](=O)[O-])cc1[N+](=O)[O-]` [CB1954, 5-(aziridin-1-yl)-2,4-dinitrobenzamide, reference compound] was tested, and the IC50 was 90 µM.

Same assay, conditions: Mus musculus; EMT6 cells, 18 h drug exposure; read-out: EMT6 NR− IC50
In the case of `O=C(NCC(O)CO)c1cc(N2CC2)c([N+](=O)[O-])cc1[N+](=O)[O-]` (stereo not drawn) [Compound 2, N-(2,3-dihydroxypropyl)-5-(aziridin-1-yl)-2,4-dinitrobenzamide], the IC50 is reported as 90 µM.

The molecules below were run on EN2A, NR-transformed counterpart of EMT6 (assay: Cytotoxicity, 18 h drug exposure, EMT6 NR+ line (EN2A)). Conditions: EMT6 vs EN2A; inter-experiment average.
Type: cell-based, mouse
Source text: as §1
`NC(=O)c1cc(N2CC2)c([N+](=O)[O-])cc1[N+](=O)[O-]` [CB1954, 5-(aziridin-1-yl)-2,4-dinitrobenzamide, reference compound] was tested, and the “EMT6 ratio of IC50s” value was 1100.
For `O=C(NCC(O)CO)c1cc(N2CC2)c([N+](=O)[O-])cc1[N+](=O)[O-]` (stereo not drawn) [Compound 2, N-(2,3-dihydroxypropyl)-5-(aziridin-1-yl)-2,4-dinitrobenzamide], the “EMT6 ratio of IC50s” value was 86.

Same assay, conditions: Mus musculus, EMT6, 18 h, read-out: EMT6 NR+ IC50
Work on `NC(=O)c1cc(N2CC2)c([N+](=O)[O-])cc1[N+](=O)[O-]` [CB1954, 5-(aziridin-1-yl)-2,4-dinitrobenzamide, reference compound] yielded an IC50 of 0.08 µM.

Same assay, conditions: Mus musculus, EMT6; EN2A cells, 18 h drug exposure; read-out: EMT6 NR+ IC50
In the case of `O=C(NCC(O)CO)c1cc(N2CC2)c([N+](=O)[O-])cc1[N+](=O)[O-]` (stereo not drawn) [Compound 2, N-(2,3-dihydroxypropyl)-5-(aziridin-1-yl)-2,4-dinitrobenzamide], the IC50 is reported as 1.1 µM.

What follows are molecules tested on Chinese hamster fibroblast NR+ line (T79-A3), NR transfectant (assay: Cytotoxicity, 18 h drug exposure, V79 NR+ line (T79-A3)). Conditions: Cricetulus griseus, Fibroblast, 18 h, read-out: V-79 NR+ IC50.
Type: cell-based
Source text: as §1
In the case of `NC(=O)c1cc(N2CC2)c([N+](=O)[O-])cc1[N+](=O)[O-]` [CB1954, 5-(aziridin-1-yl)-2,4-dinitrobenzamide, reference compound], the IC50 is reported as 0.3 µM.
In the case of `COC(=O)CCNC(=O)c1cc(N2CC2)c([N+](=O)[O-])cc1[N+](=O)[O-]` [Compound 8, 5-(aziridin-1-yl)-N-[2-(methoxycarbonyl)ethyl]-2,4-dinitrobenzamide], the IC50 is reported as 0.4 µM.

Same assay, conditions: Cricetulus griseus, Fibroblast; T79-A3 cells, 18 h drug exposure; read-out: V-79 NR+ IC50
`O=C(NCC(O)CO)c1cc(N2CC2)c([N+](=O)[O-])cc1[N+](=O)[O-]` (stereo not drawn) [Compound 2, N-(2,3-dihydroxypropyl)-5-(aziridin-1-yl)-2,4-dinitrobenzamide] was tested, and the IC50 was 0.71 µM.

Same assay, conditions: T78-1 vs T79-A3; inter-experiment average
With `NC(=O)c1cc(N2CC2)c([N+](=O)[O-])cc1[N+](=O)[O-]` [CB1954, 5-(aziridin-1-yl)-2,4-dinitrobenzamide, reference compound] the “V-79 ratio of IC50s” value was 1200.
With `O=C(NCC(O)CO)c1cc(N2CC2)c([N+](=O)[O-])cc1[N+](=O)[O-]` (stereo not drawn) [Compound 2, N-(2,3-dihydroxypropyl)-5-(aziridin-1-yl)-2,4-dinitrobenzamide] the “V-79 ratio of IC50s” value was 381.
In the case of `COC(=O)CCNC(=O)c1cc(N2CC2)c([N+](=O)[O-])cc1[N+](=O)[O-]` [Compound 8, 5-(aziridin-1-yl)-N-[2-(methoxycarbonyl)ethyl]-2,4-dinitrobenzamide], the “V-79 ratio of IC50s” value is reported as 1580.

Each molecule was assayed on human ovarian carcinoma NR+ line (SC3.2), NR transfectant (assay: Cytotoxicity, 18 h drug exposure, SKOV NR+ line (SC3.2)). Conditions: Homo sapiens, 18 h, read-out: SKOV NR+ IC50.
Type: cell-based
Source text: as §1
`NC(=O)c1cc(N2CC2)c([N+](=O)[O-])cc1[N+](=O)[O-]` [CB1954, 5-(aziridin-1-yl)-2,4-dinitrobenzamide, reference compound] gave an IC50 of 0.58 µM.
In the case of `COC(=O)CCNC(=O)c1cc(N2CC2)c([N+](=O)[O-])cc1[N+](=O)[O-]` [Compound 8, 5-(aziridin-1-yl)-N-[2-(methoxycarbonyl)ethyl]-2,4-dinitrobenzamide], the IC50 is reported as 2.5 µM.

Same assay, conditions: Homo sapiens; SC3.2 cells, 18 h drug exposure; read-out: SKOV NR+ IC50
`O=C(NCC(O)CO)c1cc(N2CC2)c([N+](=O)[O-])cc1[N+](=O)[O-]` (stereo not drawn) [Compound 2, N-(2,3-dihydroxypropyl)-5-(aziridin-1-yl)-2,4-dinitrobenzamide] was tested, and the IC50 was 2.3 µM.

Same assay, conditions: SKOV3 vs SC3.2; inter-experiment average
For `NC(=O)c1cc(N2CC2)c([N+](=O)[O-])cc1[N+](=O)[O-]` [CB1954, 5-(aziridin-1-yl)-2,4-dinitrobenzamide, reference compound], the “SKOV ratio of IC50s” value was 357.
In the case of `O=C(NCC(O)CO)c1cc(N2CC2)c([N+](=O)[O-])cc1[N+](=O)[O-]` (stereo not drawn) [Compound 2, N-(2,3-dihydroxypropyl)-5-(aziridin-1-yl)-2,4-dinitrobenzamide], the “SKOV ratio of IC50s” value is reported as 84.
`COC(=O)CCNC(=O)c1cc(N2CC2)c([N+](=O)[O-])cc1[N+](=O)[O-]` [Compound 8, 5-(aziridin-1-yl)-N-[2-(methoxycarbonyl)ethyl]-2,4-dinitrobenzamide] was tested, and the “SKOV ratio of IC50s” value was 270.
